Molecular target: Human CYP2D6 + P450 Reductase SUPERSOMES (Homo sapiens, UniProt P10635)
Settings: 0.1 µM, 2D6 Supersomes
Experimental: Plates were then spun in the centrifuge for 10 minutes at 3000 rpm.

Sequence of Human CYP2D6 + P450 Reductase SUPERSOMES (P10635 whole entry): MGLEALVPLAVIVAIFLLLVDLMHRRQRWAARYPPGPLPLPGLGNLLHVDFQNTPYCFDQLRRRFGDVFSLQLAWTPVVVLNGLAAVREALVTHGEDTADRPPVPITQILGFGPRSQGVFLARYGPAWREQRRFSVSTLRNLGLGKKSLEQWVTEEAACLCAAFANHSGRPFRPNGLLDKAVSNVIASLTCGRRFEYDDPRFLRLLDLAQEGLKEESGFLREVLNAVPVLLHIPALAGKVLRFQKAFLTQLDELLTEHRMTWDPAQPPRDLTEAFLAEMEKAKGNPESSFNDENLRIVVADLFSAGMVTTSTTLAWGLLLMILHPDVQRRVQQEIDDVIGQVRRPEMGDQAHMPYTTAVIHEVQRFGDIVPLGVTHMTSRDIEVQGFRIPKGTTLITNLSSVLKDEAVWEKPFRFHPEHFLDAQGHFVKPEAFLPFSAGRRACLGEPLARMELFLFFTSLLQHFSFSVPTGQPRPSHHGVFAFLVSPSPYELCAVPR

SMILES: COc1ccc2c(c1)[C@]13CCCC[C@@H]1[C@H](C2)N(C)CC3 [dextromethorphan, (+)-3-methoxy-17-methyl-(9α,13α,14α)-morphinan]
- intact compound at the 20 minute time point: no intact dextromethorphan could be detected
